Here are results for 2 compounds from patent US10513534B2, “2′-chloro nucleoside analogs for HCV infection” (priority 2012, dated 2019).

A value given as a limit tells only on which side of the number the result lay.

Holding throughout (assay type): cell-based
Data set [1] concerns HCV genotype 1b replicon. Description: HCV replicon assay in Zluc cells (CES1 study). The following applies: 72 hours. Here is the method:
(§1) An Huh-7-derived cell line (Zluc) that harbors an HCV genotype 1b replicon and a luciferase reporter gene was grown in Dulbecco's Modified Eagle Medium (DMEM) supplemented with 10% fetal bovine serum, 2 mM GlutaMAX, 1% MEM nonessential amino acids, 100 IU/mL penicillin, 100 μg/mL streptomycin, and 0.5 mg/mL Geneticin® (G418). Zluc cells were transiently transfected with human CES1 (GenBank Accession No. NM_001025194) by employing a lipid/histone based transfection procedure. Expression of CES1 was confirmed by Western blot, 24- and 48-hours after transfection, using anti-CES1 and anti-FLAG® tag antibodies.
For dose response testing the cells were seeded in 96-well plates at 7.5×10^3 cells per well in a volume of […], and incubated at 37° C./5% CO2. Drug solutions were prepared freshly in the culture medium as 2× stocks. Ten additional 5-fold dilutions were prepared from these stocks in DMEM without G418. At least three hours after cells were seeded, drug treatment was initiated by adding 50 μL of drug dilutions to the plates in duplicate. […] The plates were shaken gently for 3 min at room temperature and luminescence was measured on a Victor^3 V 1420 multilabel counter (Perkin Elmer) with a 1 second read time using a 700 nm cut-off filter. The EC50 values were calculated from dose response curves from the resulting best-fit equations determined by Microsoft Excel and XLfit 4.1 software.

Another data set concerns Zluc + CES1 cells. Description: Cytotoxicity in Zluc cells transfected with human CES1. The settings on record: Zluc cells transiently transfected with human CES1. Here is the method: as §1
(§2) For cytotoxicity evaluation, cells were treated with compounds as described herein, and cell viability was monitored using the CellTiter-Blue Cell Viability Assay (Promega) by adding 20 μL of the assay solution to each well. The plates were then incubated at 37° C./5% CO2 for at least 3 hours.

The test system of the next data set is Zluc cells. Description: Cytotoxicity in Zluc cells (CES1 study). Here is the method:
as §2

The subject of data set [2] is HCV genotype 1b replicon. Description: HCV replicon assay in Zluc cells transiently transfected with human CES1. The settings on record: for EC50: Zluc cells transiently transfected with human CES1, 72 hours; for Effect of CES1 overexpression on replicon activity: cells overexpressing CES1 versus Zluc; for Fold Activity Increase EC50 (Zluc)/EC50 (Zluc + CES1): ratio of replicon EC50 without and with CES1 overexpression. Here is the method: as §1
For dose response testing the cells were seeded in 96-well plates at 7.5×10^3 cells per well in a volume of […], and incubated at 37° C./5% CO2. Drug solutions were prepared freshly in the culture medium as 2× stocks. Ten additional 5-fold dilutions were prepared from these stocks in DMEM without G418. At least three hours after cells were seeded, drug treatment was initiated by adding 50 μL of drug dilutions to the plates in duplicate. Final concentrations of drug ranged from 100 μM to 0.0000512 μM. Cells were then incubated at 37° C./5% CO2. […] For this, media was removed from the plates via gentle tapping. Fifty microliters of ONE-glo luciferase assay reagent was added to each well. The plates were shaken gently for 3 min at room temperature and luminescence was measured on a Victor^3 V 1420 multilabel counter (Perkin Elmer) with a 1 second read time using a 700 nm cut-off filter. The EC50 values were calculated from dose response curves from the resulting best-fit equations determined by Microsoft Excel and XLfit 4.1 software.
A general note: In antiviral work, replicon cells carry a viral genome segment that copies itself.

A short description of data set [3]: Cytotoxicity in Zluc cells transfected with human CES1. The following applies: Zluc cells transiently transfected with human CES1. The method, then: as §1, §2
Data set [4] in a line: Cytotoxicity in Zluc cells (CES1 study). The following applies: human. The method, then:
as §2

In general, EC50 refers to the concentration giving half of the maximal effect. By CC50 is commonly meant the concentration at which the toxic effect on the cells reaches its halfway point. In the data set with HCV genotype 1b replicon [1], `CC(C)(CO)C(=O)SCCOP(=O)(NCc1ccccc1)OC[C@H]1O[C@@H](n2cnc3c(=O)[nH]c(N)nc32)[C@](C)(O)[C@@H]1O` (stereo partly drawn) [IDX-184] came in with an EC50 below 0.25 µM. Moreover, in the data set with Zluc + CES1 cells, the CC50 was above 50 µM. The CC50 in the data set with Zluc cells was above 50 µM. Further, in the data set with HCV genotype 1b replicon [2], the 50% effective concentration (EC50) was below 0.25 µM, the “Effect of CES1 overexpression on replicon activity” value is “not increased” and the “Fold Activity Increase EC50 (Zluc)/EC50 (Zluc + CES1)” value is recorded as “+ (+ ≤ 1)”.
For `CC(C)OC(=O)[C@H](C)N[P@](=O)(OC[C@H]1O[C@@H](n2ccc(=O)[nH]c2=O)[C@](C)(F)[C@@H]1O)Oc1ccccc1` [Sofosbuvir, sofosbuvir], the half-maximal effective concentration (EC50) in the data set with HCV genotype 1b replicon [1] (Hepatitis C virus) and with HCV genotype 1b replicon [2] (Hepatitis C virus) was 0.25 to 1 µM throughout. Further, the CC50 in data set [3] and in data set [4] was above 50 µM each time. In addition, in the data set with HCV genotype 1b replicon [2], the “Effect of CES1 overexpression on replicon activity” value was “not increased”. Also, the “Fold Activity Increase EC50 (Zluc)/EC50 (Zluc + CES1)” value in the data set with HCV genotype 1b replicon [2] is “+ (+ ≤ 1)”.
